Experimental data taken from the supplement of paper PMC10307832.

Key:
Test in all cases: relative viability (nuclei count vs DMSO), 5 days (fraction); higher = more cells survive
[1] = compound: CC(C)C[C@H](NC(=O)[C@H](Cc1ccccc1)NC(=O)c1cnccn1)B(O)O [Bortezomib] + N=C(N)NC(=N)NCCc1ccccc1 [Phenformin] (partner 250 µM)
Procedure, shortened: (§1)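 Dosing by pin tool came one day after lung cancer cell lines were seeded in 1536-well plates, using either one drug or a fixed anchor-drug dose plus five library-drug doses (not always all listed) in √10 steps. After 5 days, nuclei were counted on 4× images. Relative viability is treated-well nuclei count divided by vehicle-well nuclei count, and values are medians of duplicate plates.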

[2] = compound: CC(C)C[C@H](NC(=O)[C@H](Cc1ccccc1)NC(=O)c1cnccn1)B(O)O [Bortezomib] + NC(=O)Nc1cc(-c2cccc(F)c2)sc1C(=O)N[C@H]1CCCNC1 [AZD7762] (partner 0.2 µM)
Procedure, shortened: as §1

[3] = compound: CC1=CC(=NN1)NC2=CC(=NC(=N2)/C=C/C3=CC=CC=C3)N4CCN(CC4)C + CS(=O)(=O)N1CCN(Cc2cc3nc(-c4cccc5[nH]ncc45)nc(N4CCOCC4)c3s2)CC1 [Pictilisib] (partner 1 µM)
Procedure, shortened: as §1

[4] = compound: COC1=CC(c2cc3ccccc3[nH]2)=N/C1=C\c1[nH]c(C)cc1C [Obatoclax] + CS(=O)(=O)CCNCc1ccc(-c2ccc3ncnc(Nc4ccc(OCc5cccc(F)c5)c(Cl)c4)c3c2)o1 [Lapatinib] (partner 2 µM)
Procedure, shortened: as §1

Cell Line	relative viability ([1]; first compound 0.0002 µM)	relative viability ([1]; first compound 0.000632 µM)	relative viability ([1]; first compound 0.002 µM)	relative viability ([1]; first compound 0.006325 µM)	relative viability ([1]; first compound 0.02 µM)	relative viability ([2]; first compound 0.0002 µM)	relative viability ([2]; first compound 0.000632 µM)	relative viability ([2]; first compound 0.002 µM)	relative viability ([2]; first compound 0.006325 µM)	relative viability ([2]; first compound 0.02 µM)	relative viability ([3]; first compound 0.08 µM)	relative viability ([3]; first compound 0.253 µM)	relative viability ([3]; first compound 0.8 µM)	relative viability ([3]; first compound 2.53 µM)	relative viability ([3]; first compound 8 µM)	relative viability ([4]; first compound 0.01 µM)	relative viability ([4]; first compound 0.03162 µM)	relative viability ([4]; first compound 0.3162 µM)	relative viability ([4]; first compound 1 µM)	relative viability ([4]; first compound 0.1 µM)
HCC-78	0.699	0.641	0.676	0.712	0.364	0.591	0.603	0.453	0.616	0.238	0.219	0.216	0.214	0.202	0.108	0.937	0.64	0.579	0.844	
HCC-366	0.621	0.542	0.629	0.578	0.0354	0.221	0.331	0.401	0.37	0.0238	0.148	0.156	0.136	0.112	0.0428	1.02	1.05	0.636	0.379	0.921
IA-LM											0.319	0.505	0.378	0.173	0.0595	0.631	0.872	0.135	0.114	0.454
LCLC-103H	0.361	0.32	0.299	0.178	0.135	0.816	0.769	0.764	0.748	0.201	0.623	0.676	0.58	0.5	0.347					
NCI-H441	0.969	0.732	0.514	0.166	0.189	1.04	1.09	0.754	0.117	0.134	0.463	0.554	0.265	0.172	0.0803					
NCI-H520	0.599	0.669	0.422	0.213	0.17						0.335	0.306	0.251	0.156	0.127	0.805	0.821	0.493	0.22	0.879
NCI-H522	0.58	0.618	0.573	0.62	0.448	0.794	0.719	0.715	0.384	0.356										
NCI-H661	0.286	0.292	0.302	0.239	0.204							0.408	0.346	0.259	0.205	0.421	0.47	0.474	0.611	0.539
NCI-H1299											0.725	0.853	0.596	0.107	0.0675	0.911	0.977	0.881	0.308	0.932
NCI-H1563	0.742	0.659	0.636	0.518	0.465						0.624	0.655	0.584	0.582	0.355	0.902	1.16	0.794	0.711	0.955
NCI-H1623	0.538	0.594	0.623	0.577	0.307															
NCI-H1648						0.549	0.634	0.771	0.518	0.269										
NCI-H1650	0.385	0.303	0.139	0.16	0.149						0.519	0.526	0.549	0.113	0.0653	0.849	0.657	0.418	0.302	0.698
NCI-H1703						0.117	0.102	0.133	0.178	0.137		0.24	0.179	0.182	0.131	1	1.46	0.437	0.405	1.1
NCI-H2009	0.512	0.479	0.492	0.113	0.0828						0.754	0.415	0.781	0.25	0.142	0.92	1	0.234	0.222	0.447
NCI-H2023	0.494	0.411	0.389	0.0877	0.0739						0.203	0.266	0.197	0.0664	0.0528	1.08	0.755	0.622	0.122	0.761
NCI-H2228	0.271	0.31	0.257	0.0882	0.0761						0.433	0.547	0.468	0.065	0.0792	1.04	0.826	0.627	0.335	0.986
NCI-H2342	0.653	0.508	0.574	0.714	0.566	0.64	0.486	0.478	0.582	0.433										
SK-LU-1	0.561	0.499	0.467	0.122	0.0951						0.595	0.587	0.56	0.285	0.0825	0.75	0.87	0.637	0.621	0.61
SK-MES-1	0.648	0.6	0.608	0.269	0.15						0.341	0.357	0.279	0.168	0.134	0.457	0.458	0.519	0.519	0.509
SW 900	0.534	0.548	0.13	0.123	0.0977	0.572	0.627	0.188	0.178	0.158										
SW 1573	0.384	0.349	0.205	0.0918	0.0612						0.478	0.478	0.393	0.179	0.0655	1.06	1.16	1.13	0.559	1.31
UMC-11	0.371	0.313	0.333	0.292	0.236						0.79	0.813	0.606	0.158	0.108	1.06	1.04	0.613	0.346	0.973
